This is an account of results in patent publication US9765092B2, “Tricyclic piperidine compounds” (ACTELION PHARMACEUTICALS LTD, priority 2013, dated 2017).

This experiment addresses human TPH1 (Homo sapiens (Human), UniProt P17752). Nature of the experiment: Biochemical in vitro assay using fluorescence readout (TPH1 inhibition).
The mark [1] stands for this setting: human TPH1, fluorescence readout.
Where [2] appears, read: full length human TPH1, 40 μM L-tryptophan, 15° C., 60 minutes, fluorescence at 540 nm, mean if determined several times.

Sequence of human TPH1 (P17752 whole entry): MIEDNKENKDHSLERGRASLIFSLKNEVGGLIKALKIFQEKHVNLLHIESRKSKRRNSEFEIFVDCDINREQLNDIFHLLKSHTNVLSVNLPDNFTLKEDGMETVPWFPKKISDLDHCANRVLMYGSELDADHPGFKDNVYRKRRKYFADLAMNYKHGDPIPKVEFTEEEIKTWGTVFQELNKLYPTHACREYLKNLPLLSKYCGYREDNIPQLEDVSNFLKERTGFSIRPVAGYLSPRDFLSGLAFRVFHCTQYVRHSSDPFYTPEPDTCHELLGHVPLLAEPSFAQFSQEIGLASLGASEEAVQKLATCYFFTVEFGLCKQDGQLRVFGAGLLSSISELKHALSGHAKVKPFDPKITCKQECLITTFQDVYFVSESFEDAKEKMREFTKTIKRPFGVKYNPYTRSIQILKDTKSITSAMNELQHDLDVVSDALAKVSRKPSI

What is called IC50 is the midpoint of a concentration-inhibition curve. Read a high IC50 as lower potency. `O=C(COc1cccnc1Cl)N1CCc2nc3sccn3c2C1c1cc2cccnc2s1` (stereo not shown) [Example 6.14.3, 2-((2-chloropyridin-3-yl)oxy)-1-(5-(thieno[2,3-b]pyridin-2-yl)-7,8-dihydrothiazolo[2′,3′:2,3]imidazo[4,5-c]pyridin-6(5H)-yl)ethanone]: under setting [1], it took 67 nM to reach half-maximal inhibition (IC50).

In turn, `Cc1nn2c3c(nc2s1)CCN(C(=O)COc1cccnc1C(F)(F)F)C3c1ccc(C2CC2)cc1F` (stereo not shown) [Example 1.6.13, 1-(5-(4-cyclopropyl-2-fluorophenyl)-2-methyl-7,8-dihydro-[1,3,4]thiadiazolo[2′,3′:2,3]imidazo[4,5-c]pyridin-6(5H)-yl)-2-((2-(trifluoromethyl)pyridin-3-yl)oxy)ethanone] registered an IC50 under setting [1] of 4 nM. Compared with the last molecule, the IC50 is about 17-fold lower.

With `COc1ccc(C2c3c(nc4sccn34)CCN2C(=O)COc2ccc(CN3CCOCC3)cc2Cl)cc1OC` (stereo not shown) [Example 6.1.2, 2-(2-chloro-4-(morpholinomethyl)phenoxy)-1-(5-(3,4-dimethoxyphenyl)-7,8-dihydrothiazolo[2′,3′:2,3]-imidazo[4,5-c]pyridin-6(5H)-yl)ethanone], the IC50 under setting [1] is 5 nM. This IC50 and that of the molecule before are within 1.5-fold of each other.

Under setting [1], `CCc1nc(NS(C)(=O)=O)ccc1OCC(=O)N1CCc2nc3sc(C(F)(F)F)nn3c2C1c1ccc(C)cc1F` (stereo not shown) [Example 5.3.1, N-(6-ethyl-5-(2-(5-(2-fluoro-4-methylphenyl)-2-(trifluoromethyl)-7,8-dihydro-[1,3,4]thiadiazolo[2′,3′:2,3]imidazo[4,5-c]pyridin-6(5H)-yl)-2-oxoethoxy)pyridin-2-yl)methanesulfonamide] came in with an IC50 of 28 nM.

Turning to `Cc1nn2c3c(nc2s1)CCN(C(=O)COc1cccnc1Cl)C3c1cnc(N(C)C)s1` (stereo not shown) [Example 1.22.7, 2-((2-Chloropyridin-3-yl)oxy)-1-(5-(2-(dimethylamino)thiazol-5-yl)-2-methyl-7,8-dihydro[1,3,4]thiadiazolo[2′,3′:2,3]imidazo[4,5-c]pyridin-6(5H)-yl)ethanone], under setting [2], the IC50 was determined as 81 nM. In other words, the double-digit nanomolar range.

The molecule “1-(5-(4-chloro-2-fluorophenyl)-7,8-dihydrothiazolo[2′,3′:2,3]imidazo[4,5-c]pyridin-6(5H)-yl)-2-(2-ethyl-4-fluorophenoxy)ethanone [Example 6.4.1]” came in with an IC50 under setting [1] of 14 nM. That is a double-digit nanomolar value.

As to `Cc1nn2c3c(nc2s1)CCN(C(=O)COc1ccc(N(C)CCO)nc1Cl)C3c1ccc(Cl)cc1F` (stereo not shown) [Example 1.4.13, 1-(5-(4-Chloro-2-fluorophenyl)-2-methyl-7,8-dihydro-[1,3,4]thiadiazolo[2′,3′:2,3]imidazo[4,5-c]pyridin-6(5H)-yl)-2-((2-chloro-6-((2-hydroxyethyl)-(methyl)amino)pyridin-3-yl)oxy)ethanone], half-maximal inhibition under setting [2] (IC50) required 5 nM. In other words, the single-digit nanomolar range.

Under setting [1], `CCc1ncccc1OCC(=O)N1CCc2nc3sccn3c2C1c1ccc(C)cc1F` (stereo not shown) [Example 6.10.2, 2-((2-ethylpyridin-3-yl)oxy)-1-(5-(2-fluoro-4-methyl-phenyl)-7,8-dihydrothiazolo[2′,3′:2,3]imidazo[4,5-c]-pyridin-6(5H)-yl)ethanone] yielded an IC50 of 7 nM.

Regarding `O=C(COc1ccc(C(F)(F)F)cc1Cl)N1CCc2nc3sccn3c2C1c1cnn(-c2ccccc2)c1` (stereo not shown) [Example 6.13.8, 2-(2-chloro-4-(trifluoromethyl)phenoxy)-1-(5-(1-phenyl-1H-pyrazol-4-yl)-7,8-dihydrothiazolo[2′,3′:2,3]-imidazo[4,5-c]pyridin-6(5H)-yl)ethanone], inhibition under setting [1] was half-maximal at 80 nM (IC50).

Under setting [1], `Cc1nn2c3c(nc2s1)CCN(C(=O)COc1ccc(Cl)cc1C)C3c1cc(CN(C)C)cs1` (stereo not shown) [Example 1.8.3, 2-(4-chloro-2-methylphenoxy)-1-(5-(4-((dimethylamino)methyl)thiophen-2-yl)-2-methyl-7,8-dihydro-[1,3,4]thiadiazolo [2′,3′:2,3]imidazo[4,5-c]pyridin-6(5H)-yl)ethanone] came in with an IC50 of 95 nM. This IC50 and that of the molecule before are within 1.5-fold of each other.

For `Cc1nn2c3c(nc2s1)CCN(C(=O)COc1ccc(N2CCOCC2)nc1Cl)C3c1cnc(C(=O)N(C)C)s1` (stereo not shown) [Example 1.34.1, 5-(6-(2-((2-chloro-6-morpholinopyridin-3-yl)oxy)acetyl)-2-methyl-5,6,7,8-tetrahydro-[1,3,4]thiadiazolo[2′,3′:2,3]imidazo[4,5-c]pyridin-5-yl)-N,N-dimethylthiazole-2-carboxamide], the IC50 under setting [1] is 6 nM.

Molecule `CCc1nc(N2CCCS2(=O)=O)ccc1OCC(=O)N1CCc2nc3sc(CF)nn3c2C1c1ncc(C)cc1F` (stereo not shown) [Example 7.2.1, 2-((6-(1,1-dioxidoisothiazolidin-2-yl)-2-ethylpyridin-3-yl)oxy)-1-(5-(3-fluoro-5-methylpyridin-2-yl)-2-(fluoromethyl)-7,8-dihydro-[1,3,4]thiadiazolo[2′,3′:2,3]imidazo[4,5-c]pyridin-6(5H)-yl)ethanone] registered an IC50 under setting [1] of 9 nM.

Under setting [2], `Cc1nn2c3c(nc2s1)CCN(C(=O)COc1ccc(N)nc1Cl)C3c1ccc(Cl)cc1F` (stereo not shown) [Example 1.4.22, 2-((6-amino-2-chloropyridin-3-yl)oxy)-1-(5-(4-chloro-2-fluorophenyl)-2-methyl-7,8-dihydro-[1,3,4]thiadiazolo[2′,3′:2,3]imidazo[4,5-c]pyridin-6(5H)-yl)-ethanone] showed an IC50 of 10 nM.

As for `COc1ccc(C2c3c(nc4sc(C)nn34)CCN2C(=O)COc2ccc3ccccc3c2)cc1OC` (stereo not shown) [Example 1.1.1, 1-(5-(3,4-dimethoxyphenyl)-2-methyl-7,8-dihydro-[1,3,4]thiadiazolo[2′,3′:2,3]imidazo[4,5-c]pyridin-6(5H)-yl)-2-(naphthalen-2-yloxy)ethanone], the IC50 under setting [1] turned out to be 10 nM.

Turning to `Cc1nn2c3c(nc2s1)CCN(C(=O)COc1ccc(N2CC4CC2CO4)nc1Cl)C3c1ccc(Cl)cc1F` (stereo not shown) [Example 1.4.33, 2-((6-(2-Oxa-5-azabicyclo[2.2.1]heptan-5-yl)-2-chloropyridin-3-yl)oxy)-1-(5-(4-chloro-2-fluorophenyl)-2-methyl-7,8-dihydro-[1,3,4]thiadiazolo[2′,3′:2,3]imidazo[4,5-c]pyridin-6(5H)-yl)ethanone], the IC50 under setting [2] was found to be 2 nM.

Under setting [1], `CCc1nc(C)ccc1OCC(=O)N1CCc2nc3sccn3c2C1c1ccc(C(F)F)cc1F` (stereo not shown) [Example 6.16.2, 1-(5-(4-(difluoromethyl)-2-fluorophenyl)-7,8-dihydro-thiazolo[2′,3′:2,3]imidazo[4,5-c]pyridin-6(5H)-yl)-2-((2-ethyl-6-methylpyridin-3-yl)oxy)ethanone] displayed an IC50 of 8 nM.

Consider `CN1CCN(c2ccc(OCC(=O)N3CCc4nc5sc(C6CC6)nn5c4C3c3ccc(Cl)cc3F)c(Cl)n2)CC1` (stereo not shown) [Example 4.1.4, 1-(5-(4-chloro-2-fluorophenyl)-2-cyclopropyl-7,8-dihydro-[1,3,4]thiadiazolo[2′,3′:2,3]imidazo[4,5-c]pyridin-6(5H)-yl)-2-((2-chloro-6-(4-methylpiperazin-1-yl)pyridin-3-yl)oxy)ethanone], for which the IC50 under setting [1] worked out at 12 nM.

`CCc1nc(NS(C)(=O)=O)ccc1OCC(=O)N1CCc2nc3sc(C(F)F)nn3c2C1c1ccc(Cl)cc1F` (stereo not shown) [Example 8.1.2, N-(5-(2-(5-(4-chloro-2-fluorophenyl)-2-(difluoromethyl)-7,8-dihydro-[1,3,4]thiadiazolo[2′,3′:2,3]imidazo[4,5-c]pyridin-6(5H)-yl)-2-oxoethoxy)-6-ethylpyridin-2-yl)methanesulfonamide]: half-maximal inhibition under setting [1] (IC50) required 10 nM.

As to `Cc1ncc(OCC(=O)N2CCc3nc4sc(C)nn4c3C2c2ccc(C3CC3)cc2F)c(C)n1` (stereo not shown) [Example 1.6.27, 1-(5-(4-cyclopropyl-2-fluorophenyl)-2-methyl-7,8-dihydro-[1,3,4]thiadiazolo[2′,3′:2,3]imidazo[4,5-c]pyridin-6(5H)-yl)-2-((2,4-dimethylpyrimidin-5-yl)oxy)ethanone], the IC50 under setting [1] is 161 nM. This IC50 lies about 16-fold higher than the previous one.

Under setting [1], `CNC(=O)c1cc(F)c(C2c3c(nc4sc(C)nn34)CCN2C(=O)COc2ccc(N3CC(F)(F)C3)nc2Cl)s1` (stereo not shown) [Example 1.25.5, 5-(6-(2-((2-chloro-6-(3,3-difluoroazetidin-1-yl)pyridin-3-yl)oxy)acetyl)-2-methyl-5,6,7,8-tetrahydro-[1,3,4]thiadiazolo [2′,3′:2,3]imidazo[4,5-c]pyridin-5-yl)-4-fluoro-N-methylthiophene-2-carboxamide] showed an IC50 of 7 nM.

`Cc1nn2c3c(nc2s1)CCN(C(=O)COc1ccc(C(=O)N(C)C)nc1Cl)C3c1ncc(C2CC2)cc1F` (stereo not shown) [Example 1.14.8, 6-chloro-5-(2-(5-(5-cyclopropyl-3-fluoropyridin-2-yl)-2-methyl-7,8-dihydro-[1,3,4]thiadiazolo[2′,3′:2,3]imidazo[4,5-c]pyridin-6(5H)-yl)-2-oxoethoxy)-N,N-dimethylpicolinamide]: the IC50 under setting [1] stood at 3 nM.

The molecule `Cc1nn2c3c(nc2s1)CCN(C(=O)COc1ccc(I)nc1Cl)C3c1ccc(Cl)cc1F` (stereo not shown) [Example 1.4.10, 1-(5-(4-chloro-2-fluorophenyl)-2-methyl-7,8-dihydro-[1,3,4]thiadiazolo[2′,3′:2,3]imidazo[4,5-c]pyridin-6(5H)-yl)-2-((2-chloro-6-iodopyridin-3-yl)oxy)ethanone] displayed an IC50 under setting [1] of 8 nM. Against the preceding molecule, the IC50 is about 2.7-fold higher.

Turning to `Cc1nn2c3c(nc2s1)CCN(C(=O)COc1ccc(N2CC(F)(F)C2)nc1Cl)C3c1sc(C(=O)N(C)C)cc1F` (stereo not shown) [Example 1.24.6, 5-(6-(2-((2-chloro-6-(3,3-difluoroazetidin-1-yl)pyridin-3-yl)oxy)acetyl)-2-methyl-5,6,7,8-tetrahydro-[1,3,4]thiadiazolo [2′,3′:2,3]imidazo[4,5-c]pyridin-5-yl)-4-fluoro-N,N-dimethylthiophene-2-carboxamide], inhibition under setting [1] was half-maximal at 5 nM (IC50).

Under setting [1], `Cc1nn2c3c(nc2s1)CCN(C(=O)COc1ccc(S(C)(=O)=O)nc1Cl)C3c1ccc(Cl)cc1F` (stereo not shown) [Example 1.4.59, 1-(5-(4-chloro-2-fluorophenyl)-2-methyl-7,8-dihydro-[1,3,4]thiadiazolo[2′,3′:2,3]imidazo[4,5-c]pyridin-6(5H)-yl)-2-((2-chloro-6-(methylsulfonyl)pyridin-3-yl)oxy)ethan-1-one] had an IC50 of 27 nM. Against the preceding molecule, the IC50 is about 5.4-fold higher.

For the molecule `Cc1nn2c3c(nc2s1)CCN(C(=O)COc1ccc(N(C)C)nc1Cl)C3c1ccc(Cl)cc1F` (stereo not shown) [Example 1.4.7, 1-(5-(4-chloro-2-fluorophenyl)-2-methyl-7,8-dihydro-[1,3,4]thiadiazolo[2′,3′:2,3]imidazo[4,5-c]pyridin-6(5H)-yl)-2-((2-chloro-6-(dimethylamino)pyridin-3-yl)oxy)ethanone], half-maximal inhibition under setting [1] (IC50) required 6 nM.
